Source: publication PMC5449454, “Anti-Double-Stranded DNA IgG Participates in Renal Fibrosis through Suppressing the Suppressor of Cytokine Signaling 1 Signals” (Frontiers in Immunology, 2017)

Legend:
[1] = tested on: anti-dsDNA IgG binding to dsDNA antigen; test: Inhibition ELISA, anti-dsDNA IgG binding to dsDNA antigen; parameters: species or system murine; conditions: anti-dsDNA IgG 2 µg/ml pre-incubated with serially diluted peptide (0.04 to 80 µg/ml); three independent experiments
Description: (§1) Common ELISAs (for binding to dsDNA or peptide) and inhibition ELISAs were performed as previously described ([8], [35]). Briefly, the KIR ELISA was carried out by adding biotinylated KIR peptide (DTHFRTFRSHSDYRRI, 5 µg/ml) to streptavidin-coated 96-well plates. For inhibition with KIR (or ALW) peptide, anti-dsDNA IgG (2 µg/ml) was pre-incubated with serially diluted peptide (from 0.04 to 80 µg/ml), and then transferred to antigen-coated 96-well plates. Alkaline phosphatase-conjugated goat anti-mouse IgG (2 µg/ml; Southern Biotech) was used as secondary antibody. Similarly, for inhibition with anti-dsDNA IgG, the FITC-labeled JAK2 loop peptide (LPQDKEYYKVKEP, 0.2 µg/ml) was pre-incubated with serially diluted anti-dsDNA IgG (from 0.02 to 20 µg/ml) before transfer to KIR-coated plates, which were detected for fluorescein intensity under a Perkin Elmer Reader (Winpact Scientific, Irvine, CA, USA). Cell surface ELISA was performed by growing mesangial cells in 96-well plates ([8], [35]). All peptides were synthesized by Sangon Biotech Company (Shanghai, China).

mesangial cells [2] = test: Real-time PCR, mesangial cells; type: cell-based, murine; conditions: anti-dsDNA IgG 2 µg/ml premixed with peptide 1 µg/ml, 2 days
Description: Immortal murine mesangial cells and glomerular endothelial cells (Jieqing Biotech, Wuhan, China) were cultured in RPMI 1640 medium supplemented with 10% fetal bovine serum ([8], [33]). Immortal murine proximal tubular epithelial cells (kindly provided by Dr. Cheng Pan, Wuhan University, China) were cultured in Dulbecco’s modified Eagle’s medium as described previously ([34]).
(§2) By using a HiTrap purification kit (GE Healthcare, Port Washington, NY, USA) ([8]), anti-dsDNA IgG was purified from the culture supernatants of murine WJ31 hydridoma clone (IgG2a; Jieqing Biotech). Control murine IgG (IgG2a; Jieqing Biotech) was verified by enzyme-linked immunosorbent assay (ELISA) to determine that there was no binding to DNA antigen (data not shown). Cells were starved routinely before the 2-day stimulation of anti-dsDNA IgG or control IgG (2 µg/ml). In some experiments, mesangial cells were stimulated with anti-dsDNA IgG (2 µg/ml) that was premixed with D-form (ALWPPNLHAWVP) or scrambled (PLPHNPWVLAAW) ALW peptide (1 µg/ml). The cell viability of three types of cells was measured using PrestoBlue viability reagent (Life Technologies, Carlsbad, CA, USA).
As previously described ([8]), total RNA was extracted from fresh tissues or cultured cells, followed by reverse transcription. The 7900HT Fast PCR System (Applied Biosystems, Carlsbad, CA, USA) was used for PCR, and SYBR Green Master Mixes (Invitrogen, Grand Island, NY, USA) was used as fluorescent dye. The sequences of primers (Jieqing Biotech) are listed in Table S2 in Supplementary Material.

[3] = tested on: SOCS1, JAK2 and STAT1 in kidneys of SCID mice; test: Renal SOCS1/JAK2/STAT1 proteins by Western blotting, SCID mice; type: in vivo; conditions: i.v., n = 5, versus anti-dsDNA IgG alone
Description: Renal biopsies were obtained from patients with LN (n = 7), who had serum positivity of anti-dsDNA IgG (Table S1 in Supplementary Material). The diagnosis of LN was made based on the histological features of renal biopsies. For normal human controls, sera and non-lesional tissues were taken from patients (n = 5) who underwent surgical nephrectomy due to renal cell carcinoma or renal rupture (Table S1 in Supplementary Material). There was no statistical difference in term of age between the LN patients and the controls (p > 0.05). […] The MRL/lpr and MRL/MpJ mice (female, 12 or 24 weeks old, n = 5 each group) as well as SCID mice (female, 8 weeks old, n = 5 each group) were bred in the animal facility of Xi’an Jiaotong University Health Science Center. Urine, sera, and renal tissues were harvested from MRL/lpr and MRL/MpJ mice. Proteinuria was quantitated by the Coomassie brilliant blue method ([32]). […]
Fresh tissues and cell cultures were extracted for lysates with the addition of protease inhibitor cocktail (Thermo Scientific, Waltham, MA, USA). […] The band intensities were quantitated by ImageJ 1.61u software (National Institutes of Health, Bethesda, MD, USA) and normalized to β-actin values accordingly. The intensities of blank groups were set as 1 (baseline), and the relative intensities were calculated in other groups.

[4] = tested on: proximal tubular epithelial cells; test: Cell viability (PrestoBlue), proximal tubular epithelial cells; type: cell-based, murine; conditions: D-form ALW 1 µg/ml, 2 days
Description: as §2
(§3) Mesangial Glomerular Tubular cells endothelial epithelial
(§4) Supplementary Figure S7. Cell viability assays of kidney cells. (A) Murine cells were cultured in vitro, and received control or anti-dsDNA IgG stimulation (2 µg/ml, 2 days). (B) Similarly, these cells were also stimulated with scrambled or D-form ALW peptide (1 µg/ml, 2 days). The cell viability was measured using PrestoBlue viability reagent. Data were from three independent experiments. Data points and error bars […]
(§5) (also on this page, place not known: µ g/ml,2 µ g/ml,2 Cell viability (%) Cell viability (%))

[5] = tested on: anti-dsDNA IgG binding to SOCS1-KIR peptide; test: Inhibition ELISA, anti-dsDNA IgG binding to SOCS1-KIR peptide; parameters: species or system murine; conditions: anti-dsDNA IgG 2 µg/ml pre-incubated with serially diluted peptide (0.04 to 80 µg/ml); three independent experiments
Description: as §1

mesangial cells [6] = test: Cell viability (PrestoBlue), mesangial cells; type: cell-based, murine; conditions: D-form ALW 1 µg/ml, 2 days
Description: as §2, §3, §4, §5

[7] = tested on: anti-dsDNA IgG binding to mesangial cells; test: Inhibition cell surface ELISA, anti-dsDNA IgG binding to mesangial cells; type: cell-based, murine; conditions: anti-dsDNA IgG premixed with D-form or scrambled ALW peptide; three independent experiments
Description: as §1

ALWPPNLHAWVP [D-form ALW, ALW peptide with two terminal residues A and P replaced with D-form ones]
inhibition of anti-dsDNA IgG binding to DNA antigen [1]: inherited the inhibitory property of the (natural) ALW
CTGF mRNA expression level, ALW plus anti-dsDNA IgG (mesangial cells [2]): significantly reduced
Fn14 mRNA expression level, ALW plus anti-dsDNA IgG (mesangial cells [2]): significantly reduced
JAK2 mRNA level, ALW plus anti-dsDNA IgG (mesangial cells [2]): decreased
PDGFB mRNA expression level, ALW plus anti-dsDNA IgG (mesangial cells [2]): significantly reduced
SOCS1 mRNA expression level, ALW plus anti-dsDNA IgG (mesangial cells [2]): did not affect
STAT1 mRNA level, ALW plus anti-dsDNA IgG (mesangial cells [2]): decreased
renal JAK2 protein expression level, ALW plus anti-dsDNA IgG [3]: remarkable attenuation
renal STAT1 protein expression level, ALW plus anti-dsDNA IgG [3]: remarkable attenuation
cell viability [4]: no changes
inhibition of anti-dsDNA IgG binding to SOCS1-KIR peptide [5]: inhibited
cell viability (mesangial cells [6]): no changes
inhibition of anti-dsDNA IgG binding to mesangial cells [7]: inhibited
